Assay results taken from paper PMC12040169 (PLOS Biology, 2025).

Experiment: in vitro
Conditions: human, hela cells, % viability

Structure (SMILES): Cc1noc(NS(=O)(=O)c2ccc(NC(=O)/C=C/c3ccc(C(C)C)cc3)cc2)c1C [CBK265430]
- viability at 28.5 h, 10 µM: 89.2%

Structure (SMILES): O=C(O)c1cccc(NC(=O)c2ccc(CSc3ccc(Br)cc3)cc2)c1 [CBK263226]
- viability at 28.5 h, 10 µM: 98.3%

Structure (SMILES): O=C(Nc1ccccc1C(=O)O)c1ccc(Cl)c(S(=O)(=O)N2CCCCC2)c1 [CBK261763]
- viability at 28.5 h, 10 µM: 113%

Structure (SMILES): O=C(CN1C(=O)S/C(=C\C=C\c2ccccc2)C1=O)Nc1cccc2c1C(=O)c1ccccc1C2=O [CBK263870]
- viability at 28.5 h, 10 µM: 87.1%

Structure (SMILES): CN1CCC2(CC1)OCc1cc(-c3cccnc3)ccc1O2 [CBK061020]
- viability at 28.5 h, 10 µM: 94.6%

Structure (SMILES): CN(C)S(=O)(=O)Nc1cccc2cc[nH]c12 [CBK159505]
- viability at 28.5 h, 10 µM: 92.8%

Structure (SMILES): Cc1c(Cl)c([N+](=O)[O-])nn1CCCC(=O)Nc1cc(Br)ccc1O [CBK268875]
- viability at 28.5 h, 10 µM: 93.1%

Structure (SMILES): Cc1ccn2c(C(=O)N(C)CCc3noc(C(C)C)n3)nnc2n1 [CBK306670]
- viability at 28.5 h, 10 µM: 89.3%

Structure (SMILES): O=C1CC(c2ccccc2)CC(NCc2ccccc2)=C1C(=S)Nc1ccccc1 (stereo not shown) [CBK264491]
- viability at 28.5 h, 10 µM: 104%

Structure (SMILES): Cc1ccccc1C(=O)NCCNC(=O)c1cccnc1 [CBK269222]
- viability at 28.5 h, 10 µM: 96.2%

Structure (SMILES): CCOc1ccc(S(=O)(=O)N2CCCC(C(=O)NCCO)C2)cc1 (stereo not shown) [CBK269968]
- viability at 28.5 h, 10 µM: 83.8%

Structure (SMILES): O=C1N(CN2CCN(c3cccc(C(F)(F)F)c3)CC2)c2ccccc2C12OCCCO2 [CBK294461]
- viability at 28.5 h, 10 µM: 99%

Structure (SMILES): CCc1ccc(C(O)CNC2CCN(c3nccs3)CC2)cc1 (stereo not shown) [CBK304215]
- viability at 28.5 h, 10 µM: 94.3%

Structure (SMILES): CC(CNC(=O)Cc1ccc(C(F)(F)F)cc1[N+](=O)[O-])N1CCc2ccccc2C1 (stereo not shown) [CBK298292]
- viability at 28.5 h, 10 µM: 88.8%

Structure (SMILES): COc1ccc(C2C(C(=O)c3ccc(C)cc3)=C(O)C(=O)N2CCN(C)C)cc1OC (stereo not shown) [CBK264463]
- viability at 28.5 h, 10 µM: 90.1%

Structure (SMILES): c1ccc(Oc2cccc(CN3CCC(N4CCN(c5ccccc5)CC4)CC3)c2)cc1 [CBK264662G]
- viability at 28.5 h, 10 µM: 88%

Structure (SMILES): Cc1ccc(C2(O)CCN(Cc3cn(C)nc3C)CC2)cc1 [CBK282753]
- viability at 28.5 h, 10 µM: 107%

Structure (SMILES): COc1ccc(/C=C(/C(=O)NCc2ccc(Cl)cc2Cl)c2ccccc2)cc1 [CBK265256]
- viability at 28.5 h, 10 µM: 89.9%

Structure (SMILES): O=C(Nc1ccccc1C(=O)NCc1ccccc1)c1cccc(F)c1 [CBK269351]
- viability at 28.5 h, 10 µM: 88.9%

Structure (SMILES): COc1ncc(-c2cn3ccnc3c(N3CCN(CCO)CC3)n2)c(OC)n1 [CBK037869]
- viability at 28.5 h, 10 µM: 107%

Structure (SMILES): O=C(/C=C/c1ccc2c(c1)OCO2)N1CCN(C(=O)c2ccco2)CC1 [CBK144459]
- viability at 28.5 h, 10 µM: 95.1%

Structure (SMILES): CC[C@H](Cn1c(=O)oc2ccccc21)NC(=O)Cc1cccs1 [CBK284537]
- viability at 28.5 h, 10 µM: 84.7%

Structure (SMILES): O=S(=O)(Nc1cccc(Cl)c1Cl)c1cccc2nsnc12 [CBK067296]
- viability at 28.5 h, 10 µM: 86.3%

Structure (SMILES): CC(=O)NC[C@@H]1C=C(C)[C@H](Cc2nnc(-c3cncn3C)o2)C[C@H]1C(C)C [CBK289225]
- viability at 28.5 h, 10 µM: 107%

Structure (SMILES): CCS(=O)(=O)Nc1ccc(C2=NN(S(=O)(=O)c3ccc(F)cc3)C(c3ccccc3C)C2)cc1 (stereo not shown) [CBK269161]
- viability at 28.5 h, 10 µM: 103%

Structure (SMILES): COc1ccc(OC)c(C(C)NC(=O)C2CCN(Cc3cccc(C(F)(F)F)c3)CC2)c1 (stereo not shown) [CBK148764]
- viability at 28.5 h, 10 µM: 95.7%

Structure (SMILES): Cn1nc(C(=O)NCC2(c3cccc(F)c3)CCCC2)ccc1=O [CBK281437]
- viability at 28.5 h, 10 µM: 86.9%

Structure (SMILES): COc1ccc(OC(=O)N2CCC3(CC2)CC(=O)N(Cc2ccc(S(C)(=O)=O)cc2)C3=O)cc1 [CBK155952]
- viability at 28.5 h, 10 µM: 99.3%

Structure (SMILES): O=C(COc1ccccc1)c1cn(CC(=O)N2CCc3ccccc32)c2ccccc12 [CBK267659]
- viability at 28.5 h, 10 µM: 93.5%

Structure (SMILES): Cc1ncc(CN2CCCC(Cc3nc4ccccc4[nH]3)C2)s1 (stereo not shown) [CBK281902]
- viability at 28.5 h, 10 µM: 99.7%

Structure (SMILES): COc1ccc2[nH]cc(CCNC(=O)N(C)C3CCN(C)C3)c2c1 (stereo not shown) [CBK156004]
- viability at 28.5 h, 10 µM: 112%

Structure (SMILES): C=Cn1ncc(CN(C)Cc2nc3ccccc3[nH]2)c1C [CBK283170]
- viability at 28.5 h, 10 µM: 91.6%

Structure (SMILES): O=C(NCCSCc1c(F)cccc1Cl)Nc1ccccc1 [CBK265340]
- viability at 28.5 h, 10 µM: 90.2%

Structure (SMILES): O=C(O)CCC(=O)Nc1ccc(NC(=O)C2CCCCC2)c(Cl)c1 [CBK268867]
- viability at 28.5 h, 10 µM: 89.3%

Structure (SMILES): CC1CCC(C(N)=O)CN1C(=O)c1cncc(Br)c1 (stereo not shown) [CBK305773]
- viability at 28.5 h, 10 µM: 96.3%

Structure (SMILES): CN(C)CCN(C)c1cccc(-c2cccc(OC(F)(F)F)c2)n1 [CBK037020]
- viability at 28.5 h, 10 µM: 102%

Structure (SMILES): COc1ccc(CN2CCCN(S(=O)(=O)c3ccc(C(=O)c4ccccc4)cc3)CC2)cc1F [CBK062855]
- viability at 28.5 h, 10 µM: 97.7%

Structure (SMILES): COC(=O)[C@@H]1CN(C(=O)Nc2ccccc2)CCN1C(=O)C1CCCCC1 [CBK289607]
- viability at 28.5 h, 10 µM: 91%

Structure (SMILES): Cc1ccc(NC(=O)CCC(=O)N2CCC3(CC2)CC(=O)c2ccccc2O3)cc1 [CBK156524]
- viability at 28.5 h, 10 µM: 94.1%

Structure (SMILES): Cc1cccc(C(=O)NC(CC(C)C)c2nnc3n2CCNCC3)c1O (stereo not shown) [CBK307191]
- viability at 28.5 h, 10 µM: 99.6%

Structure (SMILES): O=C(Cn1c(=O)oc2ccccc21)Nc1cccc(C(=O)O)c1 [CBK267641]
- viability at 28.5 h, 10 µM: 97.4%

Structure (SMILES): CCn1cc(CN2C3CCC2CC(O)(c2ccccc2F)C3)cn1 (stereo not shown) [CBK282662]
- viability at 28.5 h, 10 µM: 86.5%

Structure (SMILES): COc1cc2c3c([nH]c2cc1F)C1(CCN(CCOc2ccccc2)C1)NCC3 (stereo not shown) [CBK115687T]
- viability at 28.5 h, 10 µM: 77.6%
